Results reported in patent publication US10052310B2, “Separase inhibitors and uses thereof” (Baylor College of Medicine, priority 2013, dated 2018).
“Also recorded” adds a separate entry of the source.

Assays:
MCF7 = test: MTT in vitro cytotoxicity assay; assay type: cell-based, human
Protocol: The inhibitory effect of Sepin-1 on cell growth was assayed using the 3-(4,5-dimethylthiazol-2yl)-2,5-diphenyl-tetrazolium bromide (MTT) colorimetric dye reduction method (Cancer Chemother. Pharmacol., 2006, 58, 13-23). One hundred thirty-five μl of exponentially growing cancer cells were plated at a density of 0.4-1.0×10^5 cells/well in a 96-well microtiter plate. After 16 h, Sepin-1 at specified concentrations was added to each well. After 72 h of continuous drug exposure, 15 μl of 5 mg/ml MTT was added to each well and the plates were incubated for 4 h at 37° C. Medium was replaced with 150 μl of DMSO to solubilize the formazan, and the optical density (OD) was measured at 550 nm using a microplate spectrophotometer (Anthos Analytical, Durham, N.C., USA). Cell viability was calculated by subtracting the background OD of media alone from the OD of test wells, then dividing by the OD of the control (untreated) wells. Replicates of 3 wells were used for each drug concentration. The in vitro cytotoxicity assay was repeated once and the IC50 reported was the average of two independent experiments.

[1] = test system: BCM-5471 triple-negative breast tumor xenograft; test: Growth inhibition of patient-derived xenograft BCM-5471; assay type: in vivo, SCID-beige mice; details: 10 mg/kg intraperitoneal injection, three week treatment
Text: Patient-derived xenograft (PDX) lines MC1 (ER− PR− HER2−) (Proc Natl Acad Sci USA. 100, 2003, 3983-3988) and BCM-5471 (ER− PR− HER2−) (Cancer Res. 73, 2013, 4885-4897) were maintained as described (Cancer Res. 73, 2013, 4885-4897) by serial transplantation into SCID Beige immunocompromised host mice whose endogenous mammary epithelium was removed surgically (Cancer Res. 19, 1959, 515-20).
For treatment studies, MCF7 xenografts (ER+ PR+ HER2−) were generated by injection of one million cultured cells grown under standard in vitro conditions as previously described (Proc. Natl. Acad. Sci. U. S. A 105, 2008, 13033-13038). Donor tumors for PDX lines MC1 and BCM-5471 were divided into small fragments and retransplanted into the fat pat of recipient SCID Beige mice (5 mice per group). When the tumors reached approximately ˜200 mg, mice were treated with either vehicle or Sepin-1. Sepin-1 was injected at dose of 10 mg/kg daily for 5 days a week for 3 weeks. […] Vehicle injected mice served as controls. Size of the xenografts were measured every four days using calipers and tumor weight was estimated using the guidelines by NCI for xenograft evaluation (http://ncifrederick.cancer.gov/Lasp/Acuc/Frederick/Media/Documents/ACUC14.pdf). After 3 weeks treatment, the tumors were harvested and fixed in 10% Buffed Formalin Phosphate (Fisher Scientific, Pittsburgh, Pa.) overnight. […]

[2] = test system: pediatric GBM tumor (#4687) orthotopic xenograft; test: Survival analysis, orthotopic xenograft of pediatric GBM tumor; assay type: in vivo, SCID-beige mice; details: 10 mg/kg daily ip, 5 days a week, 4 weeks, n=6/group
Protocol: FIG. 10 provides data relating to separase overexpression in Pediatric glioblastoma (GBM) and the effect of Sepin-1 in inhibiting the growth of glioblastoma cells in vitro and in vivo. […] SCID-beige mice after two weeks of transplantation were treated at a dose of 10 mg/kg daily ip for 5 days a week for 4 weeks with either Sepin-1 or vehicle (n=6/group).

MCF7 xenografts = test: Growth inhibition of MCF7 xenograft tumors; assay type: in vivo, SCID-beige mice
Protocol: For treatment studies, MCF7 xenografts (ER+ PR+ HER2−) were generated by injection of one million cultured cells grown under standard in vitro conditions as previously described (Proc. Natl. Acad. Sci. U. S. A 105, 2008, 13033-13038). Donor tumors for PDX lines MC1 and BCM-5471 were divided into small fragments and retransplanted into the fat pat of recipient SCID Beige mice (5 mice per group). When the tumors reached approximately ˜200 mg, mice were treated with either vehicle or Sepin-1. Sepin-1 was injected at dose of 10 mg/kg daily for 5 days a week for 3 weeks. […] Vehicle injected mice served as controls. Size of the xenografts were measured every four days using calipers and tumor weight was estimated using the guidelines by NCI for xenograft evaluation (http://ncifrederick.cancer.gov/Lasp/Acuc/Frederick/Media/Documents/ACUC14.pdf). After 3 weeks treatment, the tumors were harvested and fixed in 10% Buffed Formalin Phosphate (Fisher Scientific, Pittsburgh, Pa.) overnight. The tumor tissues were washed with PBS for 3×30 min; dehydrated for 1 h at 70%, 80%, 90% and 100% two times; and immerged in Xylene several times until the tissues became clear. The samples were embedded in wax and sectioned with 5 μm in thickness. All mice were maintained in accordance with the NIH Guide for the Care and Use of Laboratory Animals with approval from the Baylor College of Medicine Institutional Animal Care and Use Committee.

Molt4 cells = test: Immunoblotting for apoptosis induction; assay type: cell-based, human; details: various concentrations of Sepin-1, 24 h, Western blot
Protocol: To determine the mechanism of cell growth inhibition induced by Sepin-1, Applicants performed immunoblotting to investigate if apoptosis is induced after Molt4 cells were treated with Sepin-1. Activation of caspase-3 and cleavage of poly(ADP-ribose) polymerase (Parp-1) are two commonly used parameters in determination of apoptosis. Applicants used Etoposide as a positive control, which is a well-known chemotherapy agent that induces DNA damage by interacting with topoisomerase II. […] In addition, Applicants observed that the effect of Sepin-1 on the activation of caspase-3 and degradation of Parp-1 is similar to that of Etoposide (FIG. 8F).
Preparation of protein samples and Western blot were performed as described previously (J Cell Biol, 2008, 183, 1019-1031; PLoS. ONE., 2013, 8, e69458).

Separase = target: T1, Separase (Homo sapiens, UniProt Q14674); test: In vitro cleavage of Myc-Rad21 assay; assay type: biochemical; details: Sepin-1 50 μm; in vitro transcribed and translated Myc-Rad21
T1 construct: made in house; host or cells: 293T cells; released from IgG-Agarose by TEV protease
Protocol: Myc-Rad21 protein was prepared by using pCS2MT Rad21 plasmid ([…]) as the template and the TNT SP6 High-Yield Wheat Germ Protein Expression kit (Promega, Madison, Wis.). Myc-Rad21 protein was mixed with Separase with or without the presence of Sepin-1. The final concentration of Sepin-1 was 50 μM. The reaction mixture was incubated in a 37° C. water bath for 1 h. The cleavage of myc-Rad21 was immunoblotted with Rad21 pAb.

[3] = MCF7 xenograft tumors treated with Sepin-1 versus vehicle

T1 sequence (Q14674 whole entry): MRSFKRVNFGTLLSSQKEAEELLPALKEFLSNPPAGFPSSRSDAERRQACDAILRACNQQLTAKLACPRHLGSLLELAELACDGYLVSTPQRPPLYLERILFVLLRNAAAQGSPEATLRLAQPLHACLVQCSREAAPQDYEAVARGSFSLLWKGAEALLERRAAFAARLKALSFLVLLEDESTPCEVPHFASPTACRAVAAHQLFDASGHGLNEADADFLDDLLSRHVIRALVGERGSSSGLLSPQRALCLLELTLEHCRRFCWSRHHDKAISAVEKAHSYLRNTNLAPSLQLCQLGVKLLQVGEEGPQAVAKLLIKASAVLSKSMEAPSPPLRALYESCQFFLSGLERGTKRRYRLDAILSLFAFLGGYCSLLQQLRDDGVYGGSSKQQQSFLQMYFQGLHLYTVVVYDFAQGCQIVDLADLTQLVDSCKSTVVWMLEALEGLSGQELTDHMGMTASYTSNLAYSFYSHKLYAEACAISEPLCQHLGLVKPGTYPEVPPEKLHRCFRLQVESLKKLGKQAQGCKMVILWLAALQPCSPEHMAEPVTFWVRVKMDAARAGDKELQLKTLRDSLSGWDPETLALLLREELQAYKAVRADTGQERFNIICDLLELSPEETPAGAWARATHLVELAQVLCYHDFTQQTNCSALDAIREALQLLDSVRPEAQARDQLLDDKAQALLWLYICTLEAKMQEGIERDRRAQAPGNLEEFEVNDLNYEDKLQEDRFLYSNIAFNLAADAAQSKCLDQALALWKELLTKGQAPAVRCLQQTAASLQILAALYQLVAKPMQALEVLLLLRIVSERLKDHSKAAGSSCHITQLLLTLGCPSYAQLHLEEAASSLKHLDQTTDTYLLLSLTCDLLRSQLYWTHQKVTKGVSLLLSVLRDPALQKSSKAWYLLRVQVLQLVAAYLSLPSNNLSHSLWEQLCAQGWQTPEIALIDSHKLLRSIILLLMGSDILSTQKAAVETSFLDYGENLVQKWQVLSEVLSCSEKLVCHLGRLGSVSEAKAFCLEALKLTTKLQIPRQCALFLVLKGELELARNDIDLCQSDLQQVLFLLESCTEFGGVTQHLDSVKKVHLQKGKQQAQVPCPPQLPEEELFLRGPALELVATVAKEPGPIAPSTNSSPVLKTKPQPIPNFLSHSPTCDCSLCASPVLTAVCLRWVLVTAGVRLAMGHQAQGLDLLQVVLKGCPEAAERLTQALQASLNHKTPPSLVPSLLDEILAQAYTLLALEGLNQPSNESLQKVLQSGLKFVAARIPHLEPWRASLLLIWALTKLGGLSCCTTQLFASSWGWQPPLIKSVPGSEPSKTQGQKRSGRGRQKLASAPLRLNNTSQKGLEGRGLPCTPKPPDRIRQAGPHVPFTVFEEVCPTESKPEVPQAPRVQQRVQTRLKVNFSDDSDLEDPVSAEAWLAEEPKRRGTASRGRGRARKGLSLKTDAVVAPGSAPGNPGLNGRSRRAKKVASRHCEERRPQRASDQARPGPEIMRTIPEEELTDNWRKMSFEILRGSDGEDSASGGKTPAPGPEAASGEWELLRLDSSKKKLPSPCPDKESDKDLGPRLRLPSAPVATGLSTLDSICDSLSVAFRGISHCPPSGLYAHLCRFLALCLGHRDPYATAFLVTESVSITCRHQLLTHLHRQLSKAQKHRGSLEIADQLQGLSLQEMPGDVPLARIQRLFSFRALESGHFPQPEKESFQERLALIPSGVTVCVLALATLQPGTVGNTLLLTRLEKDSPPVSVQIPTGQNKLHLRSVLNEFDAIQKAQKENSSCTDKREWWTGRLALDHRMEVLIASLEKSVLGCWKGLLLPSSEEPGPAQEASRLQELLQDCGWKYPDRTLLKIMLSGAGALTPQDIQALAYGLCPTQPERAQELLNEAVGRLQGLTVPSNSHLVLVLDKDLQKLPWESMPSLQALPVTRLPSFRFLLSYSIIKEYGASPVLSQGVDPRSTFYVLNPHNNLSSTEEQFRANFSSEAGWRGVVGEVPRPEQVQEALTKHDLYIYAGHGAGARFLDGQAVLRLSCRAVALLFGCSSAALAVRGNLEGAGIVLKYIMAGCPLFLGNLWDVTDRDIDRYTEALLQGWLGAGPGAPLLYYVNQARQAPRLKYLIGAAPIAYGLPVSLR

CC1(C)[N+]([O-])=c2ccc([N+](=O)[O-])cc2=[N+]1[O-] [Sepin-1, 2,2-dimethyl-5-nitro-2H-benzimidazole-1,3 dioxide]
IC50 (MCF7; Homo sapiens, MCF7, Breast, 72 h, read-out: IC50 growth inhibition): 14.4 µM | sensitivity of MCF7 cells relative to MCF10f cells (MCF7; MCF7 versus MCF10f): over 3.3 times | growth of xenograft BCM-5471 versus vehicle [1]: no significant difference in growth; also recorded: more sensitive to Sepin-1 than MC-1 tumors | life span of treated mice [2]: significant increase in the life span | growth of MCF7 xenograft tumors (MCF7 xenografts; 10 mg/kg daily, 5 days a week, 3 weeks): inhibits the growth of xenograft tumor derived from MCF-7 | apoptotic bodies in H&E stained tumor sections (MCF7 xenografts; [3]): increase of apoptotic bodies | cleaved caspase-3 staining of tumor sections (MCF7 xenografts; [3]): significantly increased | activation of caspase-3 (Molt4 cells): caspase-3 proenzyme was induced and activated | cleavage of poly(ADP-ribose) polymerase (Parp-1) (Molt4 cells): Parp-1 cleavage | inhibition of Rad21 cleavage by activated Separase (Separase): could inhibit the Rad21 cleavage by activated Separase; also recorded: inhibits the cleavage of Separase substrate Rad21
